Experimental data published in ChEMBL document CHEMBL5260846, “Emerging targets and potential therapeutic agents in non-alcoholic fatty liver disease treatment” (Eur J Med Chem, 2020).
One block for each compound: values may come before it.

Key:
[1] = target: C-C chemokine receptor type 5 (Homo sapiens, UniProt P51681); experiment: Antagonist at CCR5 (unknown origin) assessed as inhibitory constant
[2] = test system: Human immunodeficiency virus 1; experiment: Antiviral activity against M tropic HIV-1 Ba-L infected in human HeLa-MAGI-CCR5 cells assessed as inhibition of viral replication; type: functional, organism-based; settings: Human immunodeficiency virus 1, Ba-L
[3] = target: T1, Peroxisome proliferator-activated receptor delta (Homo sapiens, UniProt Q03181); experiment: Agonist activity at PPARdelta (unknown origin)
T1 sequence (Q03181 whole entry): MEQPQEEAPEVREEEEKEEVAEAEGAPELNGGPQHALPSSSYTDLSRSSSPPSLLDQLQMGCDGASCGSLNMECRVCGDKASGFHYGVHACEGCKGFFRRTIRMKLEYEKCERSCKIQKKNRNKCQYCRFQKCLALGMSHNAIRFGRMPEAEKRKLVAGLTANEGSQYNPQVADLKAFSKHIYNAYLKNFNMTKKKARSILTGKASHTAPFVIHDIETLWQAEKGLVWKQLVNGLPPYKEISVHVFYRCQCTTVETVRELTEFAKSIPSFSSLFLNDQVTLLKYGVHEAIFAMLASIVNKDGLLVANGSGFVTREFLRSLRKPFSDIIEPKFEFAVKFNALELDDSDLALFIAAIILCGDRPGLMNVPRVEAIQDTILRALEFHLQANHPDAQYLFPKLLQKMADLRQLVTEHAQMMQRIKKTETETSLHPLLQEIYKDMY

[4] = test system: Hepatocyte; experiment: Anti-fibrosis effect in CCl4 induced lipid peroxidation in rat hepatocytes by measuring MDA formation incubated for 1 hr by TBARS method; type: functional, cell-based
[5] = target: T2, Peroxisome proliferator-activated receptor alpha (Mus musculus, UniProt P23204); experiment: Agonist activity at mouse PPARalpha
T2 sequence (P23204 whole entry): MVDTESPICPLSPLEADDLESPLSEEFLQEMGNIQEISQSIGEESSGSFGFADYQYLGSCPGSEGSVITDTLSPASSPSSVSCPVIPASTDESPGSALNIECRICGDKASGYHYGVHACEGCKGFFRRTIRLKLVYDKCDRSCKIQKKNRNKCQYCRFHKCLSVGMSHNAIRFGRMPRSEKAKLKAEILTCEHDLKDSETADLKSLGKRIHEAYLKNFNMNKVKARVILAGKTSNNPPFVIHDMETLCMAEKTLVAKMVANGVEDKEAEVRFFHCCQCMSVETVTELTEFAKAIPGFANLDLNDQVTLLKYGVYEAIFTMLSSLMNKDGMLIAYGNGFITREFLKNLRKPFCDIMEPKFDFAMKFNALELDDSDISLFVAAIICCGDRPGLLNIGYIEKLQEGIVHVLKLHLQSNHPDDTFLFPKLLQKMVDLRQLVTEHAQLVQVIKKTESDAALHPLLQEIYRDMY

[6] = target: T3, Peroxisome proliferator-activated receptor alpha (Homo sapiens, UniProt Q07869); experiment: Agonist activity at PPARalpha (unknown origin) assessed as transcriptional activation
T3 sequence (Q07869 whole entry): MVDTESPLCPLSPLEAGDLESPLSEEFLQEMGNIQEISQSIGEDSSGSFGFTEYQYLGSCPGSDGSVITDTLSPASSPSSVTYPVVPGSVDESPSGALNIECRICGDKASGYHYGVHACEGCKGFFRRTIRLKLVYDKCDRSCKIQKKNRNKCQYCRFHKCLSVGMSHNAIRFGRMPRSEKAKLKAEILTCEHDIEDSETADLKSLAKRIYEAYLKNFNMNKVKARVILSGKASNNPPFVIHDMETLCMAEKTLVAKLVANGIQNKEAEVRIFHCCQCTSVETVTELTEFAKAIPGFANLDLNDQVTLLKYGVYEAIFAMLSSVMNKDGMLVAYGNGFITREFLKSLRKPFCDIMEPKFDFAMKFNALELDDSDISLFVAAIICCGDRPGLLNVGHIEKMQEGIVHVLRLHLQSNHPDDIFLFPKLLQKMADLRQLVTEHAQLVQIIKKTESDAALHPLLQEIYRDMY

[7] = target: T4, Peroxisome proliferator-activated receptor gamma (Homo sapiens, UniProt P37231); experiment: Agonist activity at PPARgamma (unknown origin) assessed as transcriptional activation
T4 sequence (P37231 whole entry): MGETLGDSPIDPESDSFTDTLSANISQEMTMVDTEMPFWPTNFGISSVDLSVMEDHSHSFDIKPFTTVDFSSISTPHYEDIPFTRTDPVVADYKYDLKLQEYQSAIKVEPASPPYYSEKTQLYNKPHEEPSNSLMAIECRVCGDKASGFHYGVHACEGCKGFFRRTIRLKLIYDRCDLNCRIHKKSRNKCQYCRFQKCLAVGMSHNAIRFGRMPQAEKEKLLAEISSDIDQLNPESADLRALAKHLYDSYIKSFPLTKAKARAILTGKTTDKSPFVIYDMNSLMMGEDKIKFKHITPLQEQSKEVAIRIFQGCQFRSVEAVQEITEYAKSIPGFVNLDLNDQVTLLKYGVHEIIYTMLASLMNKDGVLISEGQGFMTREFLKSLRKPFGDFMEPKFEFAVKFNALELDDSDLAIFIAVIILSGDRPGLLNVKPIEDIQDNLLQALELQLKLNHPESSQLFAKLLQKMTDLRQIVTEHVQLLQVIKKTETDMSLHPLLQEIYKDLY

[8] = target: T3, Peroxisome proliferator-activated receptor alpha; experiment: Agonist activity at PPARalpha (unknown origin)
[9] = target: T3, Peroxisome proliferator-activated receptor alpha; experiment: Binding affinity to PPARalpha (unknown origin)
[10] = target: T3, Peroxisome proliferator-activated receptor alpha; experiment: Agonist activity at PPARalpha in human HepG2 cells; type: cell-based

Chain of C-C chemokine receptor type 5 (P51681 whole entry): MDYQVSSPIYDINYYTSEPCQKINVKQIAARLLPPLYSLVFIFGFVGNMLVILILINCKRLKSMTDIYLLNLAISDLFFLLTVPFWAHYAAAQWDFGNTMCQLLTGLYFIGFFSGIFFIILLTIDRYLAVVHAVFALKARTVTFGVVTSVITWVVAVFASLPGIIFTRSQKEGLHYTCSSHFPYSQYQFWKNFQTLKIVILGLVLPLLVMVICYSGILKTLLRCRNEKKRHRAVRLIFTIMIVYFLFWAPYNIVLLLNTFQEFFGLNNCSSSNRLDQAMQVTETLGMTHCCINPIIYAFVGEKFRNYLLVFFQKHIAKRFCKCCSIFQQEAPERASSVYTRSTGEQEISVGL

SMILES: Cc1ccc(-c2ccc3c(c2)C=C(C(=O)Nc2ccc(C[N+](C)(C)C4CCOCC4)cc2)CCC3)cc1
Ki [1]: 0.0011 µM
EC50 [2]: 0.0012 µM
EC90 [2]: 0.0057 µM

SMILES: O=C(/C=C/c1ccc(O)c2c1[C@@H](C(=O)O[C@H](Cc1ccc(O)c(O)c1)C(=O)O)[C@H](c1ccc(O)c(O)c1)O2)O[C@H](Cc1ccc(O)c(O)c1)C(=O)O
IC50 [4]: 2750 µM

SMILES: Cc1ccc(C)c(OCCCC(C)(C)C(=O)O)c1 [GEMFIBROZIL]
EC50 [8]: 15.2 µM

SMILES: COc1ccc(Oc2cc(N(C)CCOc3ccc(CC4SC(=O)NC4=O)cc3)ncn2)cc1 (configuration not stated) [LOBEGLITAZONE]
EC50 [9]: 20 µM

SMILES: CCO[C@@H](Cc1ccc(OCCn2c(C)ccc2-c2ccc(SC)cc2)cc1)C(=O)O [SAROGLITAZAR]
EC50 [10]: 0.65 pM

Continued, values first:

EC50 [3]: 0.05 µM
SMILES: CCCc1c(OCCCOc2ccc(OCC(=O)O)cc2)ccc(C(C)=O)c1O

EC50 [5]: 50 µM
SMILES: CC(C)(Oc1ccc(CCNC(=O)c2ccc(Cl)cc2)cc1)C(=O)O [BEZAFIBRATE]

EC50 [5]: 55 µM
SMILES: CCOC(=O)C(C)(C)Oc1ccc(Cl)cc1 [CLOFIBRATE]

EC50 [6]: 0.045 µM
EC50 [7]: 0.175 µM
SMILES: CSc1ccc(C(=O)/C=C/c2cc(C)c(OC(C)(C)C(=O)O)c(C)c2)cc1 [ELAFIBRANOR]
